In patent US8501770B2 (ArQule, Inc., priority 2009, dated 2013):
Read-outs that look alike come from different tables or passages of the source.

Molecular target: Full-length inactive AKT1 (Homo sapiens, UniProt P31749)
Assay: Inactive Akt Alpha Screen Assay
Format: biochemical
Procedure, shortened: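 AlphaScreen read-out (excitation 640 nm, emission 570 nm) after 90 min incubation at room temperature in the dark. Signal comes from crosstide phosphorylation by AKT1, which was activated by added PDK1, MAPKAPK2, ATP and lipid vesicles, captured via phospho-AKT substrate antibody and streptavidin beads.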

[1] = values not marked with "*", read-out: Akt1 IC50, (AlphaScreen)
[2] = values not marked with "*": AlphaScreen assay, read-out: Akt1 IC50, (AlphaScreen)
[3] = AlphaScreen assay (values not marked with *), read-out: Akt1 IC50, (AlphaScreen) (μM) (or if marked with “*” HTRF assay)

Chain of Full-length inactive AKT1 (P31749 whole entry): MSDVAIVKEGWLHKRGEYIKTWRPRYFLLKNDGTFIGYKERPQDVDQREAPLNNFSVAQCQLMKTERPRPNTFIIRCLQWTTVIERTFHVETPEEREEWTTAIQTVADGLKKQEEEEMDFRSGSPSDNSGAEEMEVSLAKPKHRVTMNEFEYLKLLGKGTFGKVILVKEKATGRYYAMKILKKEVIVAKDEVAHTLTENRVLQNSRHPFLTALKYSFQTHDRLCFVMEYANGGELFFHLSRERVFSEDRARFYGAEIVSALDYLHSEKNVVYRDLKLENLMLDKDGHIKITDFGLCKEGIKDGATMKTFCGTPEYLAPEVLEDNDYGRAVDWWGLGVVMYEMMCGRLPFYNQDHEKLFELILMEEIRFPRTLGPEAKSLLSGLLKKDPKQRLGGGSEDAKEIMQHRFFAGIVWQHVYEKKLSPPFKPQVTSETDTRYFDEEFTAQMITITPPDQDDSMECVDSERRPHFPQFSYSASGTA

| SMILES | IC50 [1] [µM] | IC50 [2] [µM] | further results |
| --- | --- | --- | --- |
| Cc1ccc2cc(NC(=O)Cc3ccc(-n4c(-c5cccnc5N)nc5cc(Br)cnc54)cc3)ccc2n1 [Example 298, 2-(4-(2-(2-aminopyridin-3-yl)-6-bromo-3H-imidazo[4,5-b]pyridin-3-yl)phenyl)-N-(2-methylquinolin-6-yl)acetamide] | 0.014 | – | – |
| Nc1ncccc1-c1nc2cccnc2n1-c1ccc(S(=O)(=O)N2CCCCC2)cc1 [Example 38] | – | 4.31 | – |
| COc1ccc(NC(=O)Cc2ccc(-n3c(-c4cccnc4N)nc4cccnc43)cc2)c(OC)c1 [Example 116] | – | 0.595 | – |
| CNS(=O)(=O)Cc1ccc(-n2c(-c3cccnc3N)nc3cccnc32)cc1 [Example 13] | – | 0.507 | – |
| CCNC(=O)c1cccc(-c2ccc3nc(-c4cccnc4N)n(-c4ccc(C5(N)CCC5)cc4)c3n2)c1 [Example 441, 3-{3-[4-(1-aminocyclobutyl)phenyl]-2-(2-aminopyridin-3-yl)-3H-imidazo[4,5-b]pyridin-5-yl}-N-ethylbenzamide] | – | – | IC50 [3]: 0.0066 µM |
| CNC(=O)c1ccc(-c2ccc3nc(-c4cccnc4N)n(-c4ccc(C5(N)CCC5)cc4)c3n2)cc1F [Example 450, 4-{3-[4-(1-aminocyclobutyl)phenyl]-2-(2-aminopyridin-3-yl)-3H-imidazo[4,5-b]pyridin-5-yl}-2-fluoro-N-methylbenzamide] | – | – | IC50 [3]: 0.0072 µM |
| CC(=O)Nc1cccc(NC(=O)Cc2ccc(-n3c(-c4cccnc4N)nc4cc(C)cnc43)cc2)c1 [Example 343, N-(3-acetamidophenyl)-2-(4-(2-(2-aminopyridin-3-yl)-6-methyl-3H-imidazo[4,5-b]pyridin-3-yl)phenyl)acetamide] | 0.11 | – | – |
| COc1cccc(NC(=O)c2ccc(-n3c(-c4cccnc4N)nc4cccnc43)cc2)c1 [Example 184, 4-[2-(2-aminopyridin-3-yl)-3H-imidazo[4,5-b]pyridin-3-yl]-N-(3-methoxyphenyl)benzamide] | 1.9 | – | – |
| Cc1noc(C)c1S(=O)(=O)NCc1ccc(-n2c(-c3cccnc3N)nc3cc(Br)cnc32)cc1 [Example 154, N-{4-[2-(2-aminopyridin-3-yl)-6-bromo-3H-imidazo[4,5-b]pyridin-3-yl]benzyl}-3,5-dimethylisoxazole-4-sulfonamide] | – | 1.2 | – |
| Nc1ncccc1-c1nc2ccc(-c3ccnc(N4CCOCC4)c3)nc2n1-c1ccc(C2(N)CCC2)cc1 [Example 439, 3-{3-[4-(1-aminocyclobutyl)phenyl]-5-(2-morpholin-4-ylpyridin-4-yl)-3H-imidazo[4,5-b]pyridin-2-yl}pyridin-2-amine] | – | – | IC50 [3]: 0.0026 µM |
| Nc1ncccc1-c1nc2ccc(-c3cnccn3)nc2n1-c1ccc(C2(N)CCC2)cc1 [Example 401, 3-(3-(4-(1-aminocyclobutyl)phenyl)-5-(pyrazin-2-yl)-3H-imidazo[4,5-b]pyridin-2-yl)pyridin-2-amine] | 0.0064 | – | – |
| Nc1ncccc1-c1nc2cccnc2n1-c1ccc(CC(=O)N2CCC(n3c(=O)[nH]c4ccccc43)CC2)cc1 [Example 107] | – | 1.43 | – |
| Nc1ncccc1-c1nc2ccc(-c3ccccc3CO)nc2n1-c1ccc(C2(N)CCC2)cc1 [Example 382, (2-(3-(4-(1-aminocyclobutyl)phenyl)-2-(2-aminopyridin-3-yl)-3H-imidazo[4,5-b]pyridin-5-yl)phenyl)methanol] | 0.01 | – | – |
| Nc1ncccc1-c1nc2ccc(-c3cc[nH]c3)nc2n1-c1ccc(C2(N)CCC2)cc1 [Example 408, 3-{3-[4-(1-aminocyclobutyl)phenyl]-5-(1H-pyrrol-3-yl)-3H-imidazo[4,5-b]pyridin-2-yl}pyridin-2-amine] | 0.0024 | – | – |
| Nc1ncccc1-c1nc2cc(Br)cnc2n1-c1ccc(CNS(=O)(=O)c2cccs2)cc1 [Example 155, N-{4-[2-(2-aminopyridin-3-yl)-6-bromo-3H-imidazo[4,5-b]pyridin-3-yl]benzyl}thiophene-2-sulfonamide] | – | 0.14 | – |
| Cc1ccc(NC(=O)Cc2ccc(-n3c(-c4cccnc4N)nc4cccnc43)cc2)cc1 [Example 127] | – | 0.108 | – |
| COc1ccc(S(=O)(=O)NCc2ccc(-n3c(-c4cccnc4N)nc4cc(Br)cnc43)cc2)cc1 [Example 177, N-{4-[2-(2-aminopyridin-3-yl)-6-bromo-3H-imidazo[4,5-b]pyridin-3-yl]benzyl}-4-methoxybenzenesulfonamide] | 2.1 | – | – |
| Cc1ccc(-c2ccc3nc(-c4cccnc4N)n(-c4ccc(C5(N)CCC5)cc4)c3n2)cc1O [Example 443, 5-{3-[4-(1-aminocyclobutyl)phenyl]-2-(2-aminopyridin-3-yl)-3H-imidazo[4,5-b]pyridin-5-yl}-2-methylphenol] | – | – | IC50 [3]: 0.012 µM |
| Nc1ncccc1-c1nc2cccnc2n1-c1ccc(CN2CCOCC2)cc1 [Example 15] | – | 1.79 | – |
| CS(=O)(=O)Nc1ccc(-c2ccc3nc(-c4cccnc4N)n(-c4ccc(C5(N)CCC5)cc4)c3n2)cc1 [Example 403, N-(4-{3-[4-(1-aminocyclobutyl)phenyl]-2-(2-aminopyridin-3-yl)-3H-imidazo[4,5-b]pyridin-5-yl}phenyl)methanesulfonamide] | 0.0045 | – | – |
| Cc1ccc(S(=O)(=O)Nc2cccc(-c3ccc4nc(-c5cccnc5N)n(-c5ccc(C6(N)CCC6)cc5)c4n3)c2)cc1 [Example 407, N-(3-{3-[4-(1-aminocyclobutyl)phenyl]-2-(2-aminopyridin-3-yl)-3H-imidazo[4,5-b]pyridin-5-yl}phenyl)-4-methylbenzenesulfonamide] | 0.0028 | – | – |
| CCOC(=O)c1cccc(-c2ccc3nc(-c4cccnc4N)n(-c4ccc(C5(N)CCC5)cc4)c3n2)c1 [Example 364, ethyl 3-(3-(4-(1-aminocyclobutyl)phenyl)-2-(2-aminopyridin-3-yl)-3H-imidazo[4,5-b]pyridin-5-yl)benzoate] | 0.0016 | – | – |

Now from value to molecule, other results behind:

| IC50 [1] [µM] | IC50 [2] [µM] | SMILES | further results |
| --- | --- | --- | --- |
| 0.011 | – | Cc1cnc2c(c1)nc(-c1cccnc1N)n2-c1ccc(CNC(=O)c2ccccc2Cc2ccccc2)cc1 [Example 225, N-(4-(2-(2-aminopyridin-3-yl)-6-methyl-3H-imidazo[4,5-b]pyridin-3-yl)benzyl)-2-benzylbenzamide] | – |
| – | 0.79 | Nc1ncccc1-c1nc2cccnc2n1-c1ccc(CNC(=O)c2ccc(C(F)(F)F)cc2)cc1 [Example 63] | – |
| 0.018 | – | Nc1ncccc1-c1nc2ccc(-c3ccc(CO)cc3)nc2n1-c1ccc(CNC(=O)c2ccccc2)cc1 [Example 226, N-(4-(2-(2-aminopyridin-3-yl)-5-(4-(hydroxymethyl)phenyl)-3H-imidazo[4,5-b]pyridin-3-yl)benzyl)benzamide] | – |
| 0.02 | – | Cc1ccc2nc(-c3cccnc3N)n(-c3ccc(CNC(=O)c4ccccc4)cc3)c2n1 [Example 246, N-(4-(2-(2-aminopyridin-3-yl)-5-methyl-3H-imidazo[4,5-b]pyridin-3-yl)benzyl)benzamide] | – |
| 0.024 | – | Nc1ncccc1-c1nc2ccc(-c3ccsc3)nc2n1-c1ccc(CNC(=O)c2cccc(F)c2)cc1 [Example 317, N-(4-(2-(2-aminopyridin-3-yl)-5-(thiophen-3-yl)-3H-imidazo[4,5-b]pyridin-3-yl)benzyl)-3-fluorobenzamide] | – |
| 0.23 | – | Cc1cnc2c(c1)nc(-c1cccnc1N)n2-c1ccc(CNC(=O)Cc2ccccc2)cc1 [Example 219, N-(4-(2-(2-aminopyridin-3-yl)-6-methyl-3H-imidazo[4,5-b]pyridin-3-yl)benzyl)-2-phenylacetamide] | – |
| – | 0.16 | Nc1ncccc1-c1nc2cc(-c3ccncc3)cnc2n1-c1ccc(CNC(=O)c2ccccc2)cc1 [Example 145, N-{4-[2-(2-aminopyridin-3-yl)-6-pyridin-4-yl-3H-imidazo[4,5-b]pyridin-3-yl]benzyl}benzamide] | – |
| – | 0.711 | COc1ccc(C(=O)NCc2ccc(-n3c(-c4cccnc4N)nc4cccnc43)cc2)cc1 [Example 54] | – |
| – | 0.084 | Nc1ncccc1-c1nc2cccnc2n1-c1ccc(CNC(=O)c2cccc(F)c2)cc1 [Example 49] | – |
| 0.16 | – | Cc1cnc2c(c1)nc(-c1cccnc1N)n2-c1ccc(CNC(=O)c2ccc(C)c(C)c2)cc1 [Example 269, N-(4-(2-(2-aminopyridin-3-yl)-6-methyl-3H-imidazo[4,5-b]pyridin-3-yl)benzyl)-3,4-dimethylbenzamide] | – |
| – | 0.354 | Nc1ncccc1-c1nc2cccnc2n1-c1ccc(CNC(=O)c2nccc3ccccc23)cc1 [Example 20] | – |
| 0.59 | – | Cc1cnc2c(c1)nc(-c1cccnc1N)n2-c1ccc(CNC(=O)c2cccc(C(F)(F)F)c2)cc1 [Example 267, N-(4-(2-(2-aminopyridin-3-yl)-6-methyl-3H-imidazo[4,5-b]pyridin-3-yl)benzyl)-3-(trifluoromethyl)benzamide] | – |
| – | 0.19 | Nc1ncccc1-c1nc2cc(-c3cncnc3)cnc2n1-c1ccc(CNC(=O)c2ccccc2)cc1 [Example 142, N-{4-[2-(2-aminopyridin-3-yl)-6-pyrimidin-5-yl-3H-imidazo[4,5-b]pyridin-3-yl]benzyl}benzamide] | – |
| 0.12 | – | Nc1ncccc1-c1nc2ccc(-c3ccc(O)cc3)nc2n1-c1ccc(CNC(=O)c2cccc(F)c2)cc1 [Example 330, N-(4-(2-(2-aminopyridin-3-yl)-5-(4-hydroxyphenyl)-3H-imidazo[4,5-b]pyridin-3-yl)benzyl)-3-fluorobenzamide] | – |
| 0.017 | – | CC(=O)Nc1cccc(NC(=O)Cc2ccc(-n3c(-c4cccnc4N)nc4ccc(-c5cccnc5)nc43)cc2)c1 [Example 258, N-(3-acetamidophenyl)-2-(4-(2-(2-aminopyridin-3-yl)-5-(pyridin-3-yl)-3H-imidazo[4,5-b]pyridin-3-yl)phenyl)acetamide] | – |
| 0.11 | – | Cc1cnc2c(c1)nc(-c1cccnc1N)n2-c1ccc(CNC(=O)c2ccc3ncccc3c2)cc1 [Example 279, N-(4-(2-(2-aminopyridin-3-yl)-6-methyl-3H-imidazo[4,5-b]pyridin-3-yl)benzyl)quinoline-6-carboxamide] | – |
| 0.73 | – | Cc1cnc2c(c1)nc(-c1cccnc1N)n2-c1ccc(CNC(=O)C2Cc3ccccc3C2)cc1 [Example 215, N-(4-(2-(2-aminopyridin-3-yl)-6-methyl-3H-imidazo[4,5-b]pyridin-3-yl)benzyl)-2,3-dihydro-1H-indene-2-carboxamide] | – |
